According to PubChem BioAssay AID1845198 (Molecular Pharmacology Branch, DTP, NCI, 2023):
pIC50: −log10 of the molar value.

Tested on: 425362-245-T-J1 tumor spheroids, viability % test/control
Experiment: Anticancer human tumor 425362-245-T-J1 patient-derived melanoma cell line growth inhibition
Details: spheroids with HUVEC and MSC; for pIC50: curve of first compound; for viability, T/C: stronger effect = lower value
Description: Multicellular complex tumor spheroid response to DNA repair inhibitors in combination with DNA-damaging drugs
This study explores the anticancer activities of DNA-damaging drugs and inhibitors of DNA damage repair, both as single agents and in combinations. Complex tumor spheroids comprised of malignant cells, endothelial cells and mesenchymal stem cells served as an in vitro model for human solid tumors. This model system incorporates physiologically relevant features and patient-derived or established malignant cell lines with clinically relevant genetic alterations from many tumor types. Twenty-six patient-derived or established malignant cell lines were evaluated representing sarcoma, melanoma, small cell lung cancer (SCLC), non-small cell lung cancer (NSCLC), as well as bladder, ovarian and pancreatic cancers. The concentration ranges selected for each drug and investigational agent were based upon clinically achievable concentrations if the clinical Cmax of the agent was known.
Compounds. The drugs and compounds olaparib (NSC753686), talazoparib (NSC767125), berzosertib (NSC777718), elimusertib (NSC800525), nedisertib (NSC802822), VX-984 (NSC792969), AZD-1390 (NSC803789), temozolomide (NSC362856), topotecan (NSC609699), trabectedin (NSC813783), staurosporine (NSC755774), and gemcitabine (NSC613327) were obtained from the National Cancer Institute (NCI) Developmental Therapeutics Program Chemical Repository. The FDA-approved anticancer drug set is available from the Developmental Therapeutics Program at https://dtp.cancer.gov/organization/dscb/obtaining/available_plates.htm. […] The stock solutions were prepared in dimethyl sulfoxide (DMSO, Sigma-Aldrich, St. Louis, MO, cat. D2650) at 400-fold the tested concentration and stored at -70 degrees C. Prior to their use, the stock solutions were diluted in fresh medium and the final DMSO concentration in the assay was 0.25% (v/v). All drugs and investigational agents were tested over a range starting from a high concentration at or near the clinical Cmax and decreasing in half-log increments. If the clinical Cmax for an agent had not been determined, the highest concentration tested was 10 microM.
Cell Lines. The patient-derived cancer cell (PDC) lines: 156681-154-R-J1-PDC, 283228-195-R-J1-PDC, 287954-098-R-J1-PDC, 292921-168-R-J2-PDC, 349418-098-R-PDC, 425362-245-T-J1-PDC, 556581-035-R-J1-PDC, and BL0293-F563-PDC were received from the NCI Patient-Derived Models Repository (PDMR, https://pdmr.cancer.gov). The established cell lines HS-SY-2 (RRID:CVCL_8719), MPNST, and SYO-1 (RRID:CVCL_7146) were obtained from the Sloan Kettering Institute. The alveolar soft parts sarcoma cell line ASPS-1 (RRID:CVCL_S738) was established at the NCI and grown from internal seed stocks. The following established cell lines were purchased from the American Type Culture Collection (ATCC, Manassas, VA): G-401 (ATCC, cat. CRL-1441, RRID:CVCL_0270), SW982 (ATCC, cat. HTB-93, RRID:CVCL_1734), VA-ES-BJ (ATCC, cat. CRL-2138, RRID:CVCL_1785), NCI-H719 (ATCC, cat. CRL-5837, RRID:CVCL_1582), NCI-H196 (ATCC, cat. CRL-5823, RRID:CVCL_1509), NCI-H841 (ATCC, cat. CRL-5845, RRID:CVCL_1595), NCI-H1618 (ATCC, cat. CRL-5879, RRID:CVCL_1480), NCI-H1876 (ATCC, cat. CRL-5902, RRID:CVCL_1503), DMS 114 (ATCC, cat. CRL-2066; RRID:CVCL_1174), NCI-H211 (ATCC, cat. CRL-5824; RRID:CVCL_1529), and SW 1271 (ATCC, cat. CRL-2177, RRID:CVCL_1716). The small cell lung cancer cell line COR-L88 was purchased from Sigma-Aldrich (cat. 92031917-1VL, RRID:CVCL_1141). The non-small cell lung cancer cell lines NCI-H226 (RRID:CVCL_1544) and NCI-H322M (RRID:CVCL_1557) were established at the NCI and grown from internal seed stocks. Pooled donor human umbilical vein endothelial cells (HUVEC, Lonza, cat. CC-2519) and human mesenchymal stem cells (hMSC, Lonza, cat. PT-2501) were purchased from Lonza (Walkersville, MD).
Cell Culture. All cells were maintained in an incubator at 37 degrees C and 5% CO2 with 95% humidity. […]

[1] = second compound 0.003 µM, first compound 0.00949 µM
[2] = second compound 0.003 µM, first compound 0.03 µM
[3] = second compound 0.003 µM, first compound 0.0949 µM
[4] = second compound 0.003 µM, first compound 0.3 µM
[5] = second compound 0.003 µM, first compound 0.949 µM
[6] = second compound 0.003 µM, first compound 3 µM
[7] = second compound 0.00949 µM, first compound 0.00949 µM
[8] = second compound 0.00949 µM, first compound 0.03 µM
[9] = second compound 0.00949 µM, first compound 0.0949 µM
[10] = second compound 0.00949 µM, first compound 0.3 µM
[11] = second compound 0.00949 µM, first compound 0.949 µM
[12] = second compound 0.00949 µM, first compound 3 µM
[13] = second compound 0.03 µM, first compound 0.00949 µM
[14] = second compound 0.03 µM, first compound 0.03 µM
[15] = second compound 0.03 µM, first compound 0.0949 µM
[16] = second compound 0.03 µM, first compound 0.3 µM
[17] = second compound 0.03 µM, first compound 0.949 µM
[18] = second compound 0.03 µM, first compound 3 µM
[19] = second compound 0.0949 µM, first compound 0.00949 µM
[20] = second compound 0.0949 µM, first compound 0.03 µM
[21] = second compound 0.0949 µM, first compound 0.0949 µM
[22] = second compound 0.0949 µM, first compound 0.3 µM
[23] = second compound 0.0949 µM, first compound 0.949 µM
[24] = second compound 0.0949 µM, first compound 3 µM
[25] = second compound 0.3 µM, first compound 0.00949 µM
[26] = second compound 0.3 µM, first compound 0.03 µM
[27] = second compound 0.3 µM, first compound 0.0949 µM
[28] = second compound 0.3 µM, first compound 0.3 µM
[29] = second compound 0.3 µM, first compound 0.949 µM
[30] = second compound 0.3 µM, first compound 3 µM
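Also: spheroids exposed to agents for 7 days.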
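For viability, T/C in this document: 100% = DMSO vehicle control viability.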

CNCc1ccc(-c2cc(-c3nc(-c4ccc(S(=O)(=O)C(C)C)cc4)cnc3N)on2)cc1 + CC[C@@]1(O)C(=O)OCc2c1cc1n(c2=O)Cc2cc3c(CN(C)C)c(O)ccc3nc2-1
pIC50 (second compound 0.003 µM): 7.26 | pIC50 (second compound 0.00949 µM): 7.32 | pIC50 (second compound 0.03 µM): > 8.02 | pIC50 (second compound 0.0949 µM): > 8.02 | pIC50 (second compound 0.3 µM): > 8.02 | viability, T/C [1]: 75.8% | viability, T/C [2]: 69.4% | viability, T/C [3]: 32.7% | viability, T/C [4]: 5.49% | viability, T/C [5]: 2.14% | viability, T/C [6]: 0.22% | viability, T/C [7]: 70% | viability, T/C [8]: 73% | viability, T/C [9]: 17.6% | viability, T/C [10]: 4.43% | viability, T/C [11]: 2.33% | viability, T/C [12]: 0.18% | viability, T/C [13]: 33.9% | viability, T/C [14]: 17.8% | viability, T/C [15]: 10.4% | viability, T/C [16]: 2.7% | viability, T/C [17]: 1.35% | viability, T/C [18]: 0.15% | viability, T/C [19]: 4.36% | viability, T/C [20]: 4.83% | viability, T/C [21]: 2.64% | viability, T/C [22]: 2.59% | viability, T/C [23]: 1.05% | viability, T/C [24]: 0.21% | viability, T/C [25]: 1.97% | viability, T/C [26]: 1.87% | viability, T/C [27]: 1.95% | viability, T/C [28]: 1.64% | viability, T/C [29]: 1.08% | viability, T/C [30]: 0.28%

Cn1ncnc1[C@H]1c2n[nH]c(=O)c3cc(F)cc(c23)N[C@@H]1c1ccc(F)cc1 + CC[C@@]1(O)C(=O)OCc2c1cc1n(c2=O)Cc2cc3c(CN(C)C)c(O)ccc3nc2-1
pIC50 (second compound 0.003 µM): > 8.02 | pIC50 (second compound 0.00949 µM): > 8.02 | pIC50 (second compound 0.03 µM): > 8.02 | pIC50 (second compound 0.0949 µM): > 8.02 | pIC50 (second compound 0.3 µM): > 8.02 | viability, T/C [1]: 47.8% | viability, T/C [2]: 30.3% | viability, T/C [3]: 17.6% | viability, T/C [4]: 11.1% | viability, T/C [5]: 5.98% | viability, T/C [6]: 2.38% | viability, T/C [7]: 28.2% | viability, T/C [8]: 13.9% | viability, T/C [9]: 9.54% | viability, T/C [10]: 9.4% | viability, T/C [11]: 6.02% | viability, T/C [12]: 3.27% | viability, T/C [13]: 8.39% | viability, T/C [14]: 8.16% | viability, T/C [15]: 7.89% | viability, T/C [16]: 6.48% | viability, T/C [17]: 3.96% | viability, T/C [18]: 2.32% | viability, T/C [19]: 4.28% | viability, T/C [20]: 3.95% | viability, T/C [21]: 3.86% | viability, T/C [22]: 3.16% | viability, T/C [23]: 2.57% | viability, T/C [24]: 1.79% | viability, T/C [25]: 2.13% | viability, T/C [26]: 1.9% | viability, T/C [27]: 1.79% | viability, T/C [28]: 1.71% | viability, T/C [29]: 1.43% | viability, T/C [30]: 1.33%

O=C(c1cc(Cc2n[nH]c(=O)c3ccccc23)ccc1F)N1CCN(C(=O)C2CC2)CC1 + CC[C@@]1(O)C(=O)OCc2c1cc1n(c2=O)Cc2cc3c(CN(C)C)c(O)ccc3nc2-1
pIC50 (second compound 0.003 µM): 5.50 | pIC50 (second compound 0.00949 µM): 6.19 | pIC50 (second compound 0.03 µM): > 7.02 | pIC50 (second compound 0.0949 µM): > 7.02 | pIC50 (second compound 0.3 µM): > 7.02 | viability, T/C [3]: 87% | viability, T/C [4]: 84.8% | viability, T/C [5]: 80.6% | viability, T/C [6]: 52.4% | viability, T/C (second compound 0.003 µM, first compound 9.49 µM): 7.82% | viability, T/C (second compound 0.003 µM, first compound 30 µM): 9.12% | viability, T/C [9]: 71.3% | viability, T/C [10]: 55% | viability, T/C [11]: 46.6% | viability, T/C [12]: 34.8% | viability, T/C (second compound 0.00949 µM, first compound 9.49 µM): 9.52% | viability, T/C (second compound 0.00949 µM, first compound 30 µM): 8.51% | viability, T/C [15]: 7.79% | viability, T/C [16]: 10.1% | viability, T/C [17]: 8.82% | viability, T/C [18]: 6.98% | viability, T/C (second compound 0.03 µM, first compound 9.49 µM): 6.48% | viability, T/C (second compound 0.03 µM, first compound 30 µM): 5.12% | viability, T/C [21]: 4.29% | viability, T/C [22]: 4.4% | viability, T/C [23]: 5.46% | viability, T/C [24]: 4.39% | viability, T/C (second compound 0.0949 µM, first compound 9.49 µM): 3.36% | viability, T/C (second compound 0.0949 µM, first compound 30 µM): 3.93% | viability, T/C [27]: 2.55% | viability, T/C [28]: 1.67% | viability, T/C [29]: 1.76% | viability, T/C [30]: 1.64% | viability, T/C (second compound 0.3 µM, first compound 9.49 µM): 1.57% | viability, T/C (second compound 0.3 µM, first compound 30 µM): 1.68%
